According to patent publication US8344008B2 (Janssen Pharmaceutica NV, priority 2007, dated 2013):

Target: T1, recombinant human LTA4 hydrolase (rhLTA4H) (Homo sapiens, UniProt P09960)
T1 construct: made in house; host or cells: Spodoptera frugiperda (Sf-9) cells, baculovirus (pFastBac1)
T1 sequence (P09960 1-611): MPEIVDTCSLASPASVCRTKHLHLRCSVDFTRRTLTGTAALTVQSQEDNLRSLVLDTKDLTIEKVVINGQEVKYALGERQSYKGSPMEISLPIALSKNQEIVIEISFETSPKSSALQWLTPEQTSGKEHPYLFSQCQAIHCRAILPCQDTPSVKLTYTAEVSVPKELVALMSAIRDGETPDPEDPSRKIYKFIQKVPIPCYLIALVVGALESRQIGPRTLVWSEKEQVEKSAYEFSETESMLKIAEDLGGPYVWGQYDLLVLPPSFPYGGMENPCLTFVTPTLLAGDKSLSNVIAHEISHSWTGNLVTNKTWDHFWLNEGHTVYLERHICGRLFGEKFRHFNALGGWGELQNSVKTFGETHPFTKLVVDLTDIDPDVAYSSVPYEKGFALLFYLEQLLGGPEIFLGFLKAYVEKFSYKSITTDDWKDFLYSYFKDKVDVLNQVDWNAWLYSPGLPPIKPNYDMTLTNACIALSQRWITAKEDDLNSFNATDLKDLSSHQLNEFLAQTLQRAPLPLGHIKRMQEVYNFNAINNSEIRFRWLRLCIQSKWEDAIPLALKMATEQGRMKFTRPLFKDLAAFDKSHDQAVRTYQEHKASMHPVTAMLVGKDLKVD
Assay: Recombinant Human LTA4 Hydrolase Assay for LTA4 Hydrolase Inhibitor Activity
Type: biochemical
Conditions: average of results obtained; LTB4 quantified by enzyme-linked immunoassay
Outline: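 LTB4 formation, quantified by EIA after 10 min at rt, was the read-out once 9 ng LTA4 (free acid) was added to recombinant human enzyme (36 ng, Sf-9 expressed) that had sat 10 min with compound. Buffer: 0.1 M potassium phosphate pH 7.4 with fatty-acid-free BSA; IC50 by 4-parameter fit.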

| Compound | Ki [nM] |
| --- | --- |
| CS(=O)(=O)N1CCC2CN(Cc3ccc(Oc4nc5ccccc5s4)cc3)CC2C1 (stereo not drawn) [Example 130, 2-[4-(5-Methanesulfonyl-octahydro-pyrrolo[3,4-c]pyridin-2-ylmethyl)-phenoxy]-benzothiazole] | 21 |
| O=C(NCc1ccco1)N1CC2CN(Cc3ccc(Oc4nc5ccccc5s4)cc3)CC2C1 (stereo not drawn) [Example 131, 5-[4-(Benzothiazol-2-yloxy)-benzyl]-hexahydro-pyrrolo[3,4-c]pyrrole-2-carboxylic acid (furan-2-ylmethyl)-amide] | 13 |
| O=C(Nc1ccncc1)N1CC2CN(Cc3ccc(Oc4nc5ccccc5s4)cc3)CC2C1 (stereo not drawn) [Example 132, 5-[4-(Benzothiazol-2-yloxy)-benzyl]-hexahydro-pyrrolo[3,4-c]pyrrole-2-carboxylic acid pyridin-4-yl amide] | 18 |
| Cc1noc(C)c1NC(=O)N1CC2CN(Cc3ccc(Oc4nc5ccccc5s4)cc3)CC2C1 (stereo not drawn) [Example 133, 5-[4-(Benzothiazol-2-yloxy)-benzyl]-hexahydro-pyrrolo[3,4-c]pyrrole-2-carboxylic acid (3,5-dimethyl-isoxazol-4-yl)-amide] | 20 |
| NC(=O)N1CC2CN(CCOc3ccc(Oc4nc5ccccc5s4)cc3)CC2C1 (stereo not drawn) [Example 134, 5-{2-[4-(Benzothiazol-2-yloxy)-phenoxy]-ethyl}-hexahydro-pyrrolo[3,4-c]pyrrole-2-carboxylic acid amide] | 32 |
| NC(=O)N1CCC2CN(Cc3ccc(Oc4nc5ccccc5s4)cc3)CC21 (stereo not drawn) [Example 135, 5-[4-(Benzothiazol-2-yloxy)-benzyl]-hexahydro-pyrrolo[3,4-b]pyrrole-1-carboxylic acid amide] | 57 |
| NC(=O)N1CC2CCN(Cc3ccc(Oc4nc5ccccc5s4)cc3)C2C1 (stereo not drawn) [Example 136, 1-[4-(Benzothiazol-2-yloxy)-benzyl]-hexahydro-pyrrolo[3,4-b]pyrrole-5-carboxylic acid amide] | 24 |
| NC(=O)N1C[C@@H]2CCN(Cc3ccc(Oc4nc5ccccc5s4)cc3)[C@@H]2C1 [Example 137, (S,S)-1-[4-(Benzothiazol-2-yloxy)-benzyl]-hexahydro-pyrrolo[3,4-b]pyrrole-5-carboxylic acid amide] | 18 |
| NC(=O)N1C[C@H]2CCN(Cc3ccc(Oc4nc5ccccc5s4)cc3)[C@H]2C1 [Example 138, (R,R)-1-[4-(Benzothiazol-2-yloxy)-benzyl]-hexahydro-pyrrolo[3,4-b]pyrrole-5-carboxylic acid amide] | 29 |
| NC(=O)N1CC2CN(Cc3ccc(Oc4nc5ccccc5s4)cc3)CC2C1 (stereo not drawn) [Example 139, 5-[4-(Benzothiazol-2-yloxy)-benzyl]-hexahydro-pyrrolo[3,4-c]pyrrole-2-carboxylic acid amide] | 3 |
| NC(=O)NC1[C@H]2CN(Cc3ccc(Oc4nc5ccccc5s4)cc3)C[C@@H]12 (stereo partly drawn) [Example 140, (R,S)-{3-[4-(Benzothiazol-2-yloxy)-benzyl]-3-aza-bicyclo[3.1.0]hex-6-yl}-urea] | 19 |
| NC(=O)N1CCC2CN(Cc3ccc(Oc4nc5ccccc5s4)cc3)CC2C1 (stereo not drawn) [Example 143, 2-[4-(Benzothiazol-2-yloxy)-benzyl]-octahydro-pyrrolo[3,4-c]pyridine-5-carboxylic acid amide] | 33 |
| NC(=O)N1CC2CN(Cc3ccc(Oc4nc5ccc(F)cc5s4)cc3)CC2C1 (stereo not drawn) [Example 144, 5-[4-(6-Fluoro-benzothiazol-2-yloxy)-benzyl]-hexahydro-pyrrolo[3,4-c]pyrrole-2-carboxylic acid amide] | 101 |
| Cc1ccc2nc(Oc3ccc(CN4CC5CN(C(N)=O)CC5C4)cc3)sc2c1 (stereo not drawn) [Example 145, 5-[4-(6-Methyl-benzothiazol-2-yloxy)-benzyl]-hexahydro-pyrrolo[3,4-c]pyrrole-2-carboxylic acid amide] | 597 |
| Cc1ccc2nc(Oc3ccc(CCN4CC5CN(C(N)=O)CC5C4)cc3)sc2c1 (stereo not drawn) [Example 146] | 78 |

Second part, the compound after the results:

| Ki [nM] | Compound |
| --- | --- |
| 5 | NC(=O)N1CC2CN(CCc3ccc(Oc4nc5c(F)cccc5s4)cc3)CC2C1 (stereo not drawn) [Example 147, 5-{2-[4-(4-Fluoro-benzothiazol-2-yloxy)-phenyl]-ethyl}-hexahydro-pyrrolo[3,4-c]pyrrole-2-carboxylic acid amide] |
| 229 | CC(=O)N1CC2CN(CCc3ccc(Oc4nc5ccc(C)cc5s4)cc3)CC2C1 (stereo not drawn) [Example 148, 1-(5-{2-[4-(6-Methyl-benzothiazol-2-yloxy)-phenyl]-ethyl}-hexahydro-pyrrolo[3,4-c]pyrrol-2-yl)-ethanone] |
| 79 | CC(=O)N1CC2CN(Cc3ccc(Cc4nc5ccccc5s4)cc3)CC2C1 (stereo not drawn) [Example 149, 1-[5-(4-Benzothiazol-2-ylmethyl-benzyl)-hexahydro-pyrrolo[3,4-c]pyrrol-2-yl]-ethanone] |
| 193 | CS(=O)(=O)N1CC2CN(Cc3ccc(Cc4nc5ccccc5s4)cc3)CC2C1 (stereo not drawn) [Example 150, 2-[4-(5-Methanesulfonyl-hexahydro-pyrrolo[3,4-c]pyrrol-2-ylmethyl)-benzyl]-benzothiazole] |
| 75 | CC(=O)N[C@H]1C[C@H]2CC[C@@H](C1)N2CCOc1ccc(Cc2nc3ccccc3s2)cc1 [Example 152, N-{8-[2-(4-Benzothiazol-2-ylmethyl-phenoxy)-ethyl]-8-aza-bicyclo[3.2.1]oct-3-yl}-acetamide] |
| 167 | COC(=O)c1ccc(CN2CC3CN(Cc4ccc(Oc5nc6ccccc6s5)cc4)CC3C2)cc1 (stereo not drawn) [Example 153, 4-{5-[4-(Benzothiazol-2-yloxy)-benzyl]-hexahydro-pyrrolo[3,4-c]pyrrol-2-ylmethyl)-benzoic acid methyl ester] |
| 32 | O=C(O)c1ccc(CN2CC3CN(Cc4ccc(Oc5nc6ccccc6s5)cc4)CC3C2)cc1 (stereo not drawn) [Example 154, 4-{5-[4-(Benzothiazol-2-yloxy)-benzyl]-hexahydro-pyrrolo[3,4-c]pyrrol-2-ylmethyl)-benzoic acid] |
| 170 | CCOC(=O)CN1CC2CN(Cc3ccc(Oc4nc5ccccc5s4)cc3)CC2C1 (stereo not drawn) [Example 155, {5-[4-(Benzothiazol-2-yloxy)-benzyl]-hexahydro-pyrrolo[3,4-c]pyrrol-2-yl}-acetic acid ethyl ester] |
| 47 | COC(=O)CCCN1CC2CN(Cc3ccc(Oc4nc5ccccc5s4)cc3)CC2C1 (stereo not drawn) [Example 156, 4-{5-[4-(Benzothiazol-2-yloxy)-benzyl]-hexahydro-pyrrolo[3,4-c]pyrrol-2-yl}-butyric acid methyl ester] |
| 57 | COC(=O)CN1CC2CN(Cc3ccc(Oc4nc5ccccc5s4)cc3)CC2C1 (stereo not drawn) [Example 157, {5-[4-(Benzothiazol-2-yloxy)-benzyl]-hexahydro-pyrrolo[3,4-c]pyrrol-2-yl}-acetic acid methyl ester] |
| 48 | O=C(O)CN1CC2CN(Cc3ccc(Oc4nc5ccccc5s4)cc3)CC2C1 (stereo not drawn) [Example 158, {5-[4-(Benzothiazol-2-yloxy)-benzyl]-hexahydro-pyrrolo[3,4-c]pyrrol-2-yl}-acetic acid] |
| 110 | NC(=O)N1CC2CN(Cc3ccc(Oc4nc5ccccc5s4)cc3F)CC2C1 (stereo not drawn) [Example 159, 5-[4-(Benzothiazol-2-yloxy)-2-fluoro-benzyl]-hexahydro-pyrrolo[3,4-c]pyrrole-2-carboxylic acid amide] |
| 1 | CC(=O)N[C@H]1C[C@H]2CC[C@@H](C1)N2Cc1ccc(Oc2nc3c(F)cccc3s2)cc1F [Example 160, meso-endo-N-{8-[2-Fluoro-4-(4-fluoro-benzothiazol-2-yloxy)-benzyl]-8-aza-bicyclo[3.2.1]oct-3-yl}-acetamide] |
| 43 | NC(=O)N1CC2CN(Cc3ccc(Oc4nc5c(F)cccc5s4)cc3F)CC2C1 (stereo not drawn) [Example 161, 5-[2-Fluoro-4-(4-fluoro-benzothiazol-2-yloxy)-benzyl]-hexahydro-pyrrolo[3,4-c]pyrrole-2-carboxylic acid amide] |
| 188 | CS(=O)(=O)N[C@@H]1C[C@H]2CC[C@@H](C1)N2CCc1ccc(Oc2nc3c(Cl)cccc3s2)cc1 [Example 162, meso-exo-N-(8-{2-[4-(4-Chloro-benzothiazol-2-yloxy)-phenyl]-ethyl}-8-aza-bicyclo[3.2.1]oct-3-yl)-methanesulfonamide] |
| 86 | CC(=O)N[C@@H]1C[C@H]2CC[C@@H](C1)N2CCc1ccc(Oc2nc3ccc(Cl)cc3s2)cc1 [Example 163, meso-exo-N-(8-{2-[4-(6-Chloro-benzothiazol-2-yloxy)-phenyl]-ethyl}-8-aza-bicyclo[3.2.1]oct-3-yl)-acetamide] |
| 417 | CC(=O)N1C[C@H]2C[C@@H]1CN2Cc1ccc(Oc2nc3c(Cl)cccc3s2)cc1 [Example 164, (R,R)-1-{5-[4-(4-Chloro-benzothiazol-2-yloxy)-benzyl]-2,5-diaza-bicyclo[2.2.1]hept-2-yl}-ethanone] |
| 414 | CC(=O)N1[C@@H]2CC[C@H]1C[C@H](NCc1ccc(Oc3nc4cc(F)ccc4s3)cc1)C2 [Example 165, meso-exo-1-{3-[4-(5-Fluoro-benzothiazol-2-yloxy)-benzylamino]-8-aza-bicyclo[3.2.1]oct-8-yl}-ethanone] |
